# Laboratory results: ChEMBL document CHEMBL1201862, “PubChem BioAssay data set” (2004)
#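 Briefly, cells in 96-well plates were exposed to five compound concentrations for 48 h, and endpoints were estimated by linear interpolation. GI50: concentration for 50% inhibition of growth.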 Activity calls are given as the source filed them. Rule as the data show it: active = GI50 up to about 1.1 µM and inactive = higher.
# Experiments:
# Test in all cases: DTP human tumour cell line panel, 48 h
# 786-0 = test system: 786-0
# A498 = test system: A498
# A549 = test system: A549
# ACHN = test system: ACHN
# BT-549 = test system: BT-549
# CAKI-1 = test system: CAKI-1
# CCRF-CEM = test system: CCRF-CEM
# COLO 205 = test system: COLO 205
# DU-145 = test system: DU-145
# EKVX = test system: EKVX
# HCC 2998 = test system: HCC 2998
# HCT-116 = test system: HCT-116
# HCT-15 = test system: HCT-15
# HL-60 = test system: HL-60
# HOP-62 = test system: HOP-62
# HOP-92 = test system: HOP-92
# HT-29 = test system: HT-29
# Hs-578T = test system: Hs-578T
# IGROV-1 = test system: IGROV-1
# KM12 = test system: KM12
# LOX IMVI = test system: LOX IMVI
# M14 = test system: M14
# MCF7 = test system: MCF7
# MDA-MB-231 = test system: MDA-MB-231
# MDA-MB-435 = test system: MDA-MB-435
# MDA-N = test system: MDA-N
# MOLT-4 = test system: MOLT-4
# Malme-3M = test system: Malme-3M
# NCI-H23 = test system: NCI-H23
# NCI-H460 = test system: NCI-H460
# NCI-H522 = test system: NCI-H522
# NCI/ADR-RES = test system: NCI/ADR-RES
# OVCAR-3 = test system: OVCAR-3
# OVCAR-4 = test system: OVCAR-4
# OVCAR-5 = test system: OVCAR-5
# OVCAR-8 = test system: OVCAR-8
# PC-3 = test system: PC-3
# RPMI-8226 = test system: RPMI-8226
# SF-268 = test system: SF-268
# SF-295 = test system: SF-295
# SF-539 = test system: SF-539
# SK-MEL-28 = test system: SK-MEL-28
# SK-MEL-2 = test system: SK-MEL-2
# SK-MEL-5 = test system: SK-MEL-5
# SN12C = test system: SN12C
# SNB-19 = test system: SNB-19
# SNB-75 = test system: SNB-75
# SR = test system: SR
# SW-620 = test system: SW-620
# T47D = test system: T47D
# TK-10 = test system: TK-10
# U-251 = test system: U-251
# UACC-257 = test system: UACC-257
# UACC-62 = test system: UACC-62
# UO-31 = test system: UO-31
# K562 = test system: K562
# NCI-H226 = test system: NCI-H226
# SK-OV-3 = test system: SK-OV-3
# RXF 393 = test system: RXF 393
structure (smiles),measurement,setting,value
OCC1OC(n2cnc3c2N=CNC[C@H]3O)C(Cl)C1O (stereo partly drawn),GI50,786-0,> 100 µM (inactive)
same,GI50,A498,> 100 µM (inactive)
same,GI50,A549,> 100 µM (inactive)
same,GI50,ACHN,> 100 µM (inactive)
same,GI50,BT-549,> 100 µM (inactive)
same,GI50,CAKI-1,> 100 µM (inactive)
same,GI50,CCRF-CEM,> 100 µM (inactive)
same,GI50,COLO 205,> 100 µM (inactive)
same,GI50,DU-145,> 100 µM (inactive)
same,GI50,EKVX,> 100 µM (inactive)
same,GI50,HCC 2998,> 100 µM (inactive)
same,GI50,HCT-116,> 100 µM (inactive)
same,GI50,HCT-15,> 100 µM
same,GI50,HL-60,> 100 µM (inactive)
same,GI50,HOP-62,> 100 µM (inactive)
same,GI50,HOP-92,> 100 µM (inactive)
same,GI50,HT-29,> 100 µM (inactive)
same,GI50,Hs-578T,> 100 µM (inactive)
same,GI50,IGROV-1,> 100 µM (inactive)
same,GI50,KM12,> 100 µM (inactive)
same,GI50,LOX IMVI,> 100 µM (inactive)
same,GI50,M14,> 100 µM (inactive)
same,GI50,MCF7,> 100 µM (inactive)
same,GI50,MDA-MB-231,> 100 µM (inactive)
same,GI50,MDA-MB-435,> 100 µM (inactive)
same,GI50,MDA-N,> 100 µM (inactive)
same,GI50,MOLT-4,94.2 µM (inactive)
same,GI50,Malme-3M,> 100 µM (inactive)
same,GI50,NCI-H23,> 100 µM (inactive)
same,GI50,NCI-H460,> 100 µM (inactive)
same,GI50,NCI-H522,> 100 µM (inactive)
same,GI50,NCI/ADR-RES,> 100 µM (inactive)
same,GI50,OVCAR-3,> 100 µM (inactive)
same,GI50,OVCAR-4,> 100 µM (inactive)
same,GI50,OVCAR-5,> 100 µM (inactive)
same,GI50,OVCAR-8,> 100 µM (inactive)
same,GI50,PC-3,> 100 µM (inactive)
same,GI50,RPMI-8226,> 100 µM (inactive)
same,GI50,SF-268,> 100 µM (inactive)
same,GI50,SF-295,> 100 µM (inactive)
same,GI50,SF-539,> 100 µM (inactive)
same,GI50,SK-MEL-28,> 100 µM (inactive)
same,GI50,SK-MEL-2,> 100 µM (inactive)
same,GI50,SK-MEL-5,> 100 µM (inactive)
same,GI50,SN12C,> 100 µM (inactive)
same,GI50,SNB-19,> 100 µM (inactive)
same,GI50,SNB-75,> 100 µM (inactive)
same,GI50,SR,> 100 µM (inactive)
same,GI50,SW-620,> 100 µM (inactive)
same,GI50,T47D,> 100 µM (inactive)
same,GI50,TK-10,> 100 µM (inactive)
same,GI50,U-251,> 100 µM (inactive)
same,GI50,UACC-257,> 100 µM (inactive)
same,GI50,UACC-62,> 100 µM (inactive)
same,GI50,UO-31,> 100 µM (inactive)
CCCNc1[nH]c(C(=O)c2ccccc2)c(N)c1C(=S)Nc1ccccc1,GI50,786-0,> 100 µM (inactive)
same,GI50,A498,> 100 µM (inactive)
same,GI50,A549,> 100 µM (inactive)
same,GI50,ACHN,> 100 µM (inactive)
same,GI50,BT-549,> 100 µM (inactive)
same,GI50,CAKI-1,> 100 µM (inactive)
same,GI50,CCRF-CEM,> 100 µM (inactive)
same,GI50,COLO 205,> 100 µM (inactive)
same,GI50,DU-145,> 100 µM (inactive)
same,GI50,EKVX,> 100 µM (inactive)
same,GI50,HCC 2998,> 100 µM (inactive)
same,GI50,HCT-116,> 100 µM (inactive)
same,GI50,HCT-15,> 100 µM
same,GI50,HL-60,> 100 µM (inactive)
same,GI50,HOP-62,> 100 µM (inactive)
same,GI50,HOP-92,> 100 µM (inactive)
same,GI50,HT-29,> 100 µM (inactive)
same,GI50,Hs-578T,> 100 µM (inactive)
same,GI50,IGROV-1,> 100 µM (inactive)
same,GI50,K562,> 100 µM (inactive)
same,GI50,KM12,> 100 µM (inactive)
same,GI50,LOX IMVI,> 100 µM (inactive)
same,GI50,M14,> 100 µM (inactive)
same,GI50,MCF7,> 100 µM (inactive)
same,GI50,MDA-MB-231,> 100 µM (inactive)
same,GI50,MDA-MB-435,> 100 µM (inactive)
same,GI50,MDA-N,> 100 µM (inactive)
same,GI50,MOLT-4,> 100 µM (inactive)
same,GI50,Malme-3M,> 100 µM (inactive)
same,GI50,NCI-H226,> 100 µM (inactive)
same,GI50,NCI-H23,> 100 µM (inactive)
same,GI50,NCI-H460,> 100 µM (inactive)
same,GI50,NCI-H522,> 100 µM (inactive)
same,GI50,NCI/ADR-RES,> 100 µM (inactive)
same,GI50,OVCAR-3,> 100 µM (inactive)
same,GI50,OVCAR-4,> 100 µM (inactive)
same,GI50,OVCAR-5,> 100 µM (inactive)
same,GI50,OVCAR-8,> 100 µM (inactive)
same,GI50,PC-3,> 100 µM (inactive)
same,GI50,SF-268,> 100 µM (inactive)
same,GI50,SF-295,> 100 µM (inactive)
same,GI50,SF-539,> 100 µM (inactive)
same,GI50,SK-MEL-28,> 100 µM (inactive)
same,GI50,SK-MEL-2,> 100 µM (inactive)
same,GI50,SK-MEL-5,> 100 µM (inactive)
same,GI50,SK-OV-3,> 100 µM (inactive)
same,GI50,SN12C,> 100 µM (inactive)
same,GI50,SNB-19,> 100 µM (inactive)
same,GI50,SNB-75,> 100 µM (inactive)
same,GI50,SR,> 100 µM (inactive)
same,GI50,SW-620,> 100 µM (inactive)
same,GI50,T47D,> 100 µM (inactive)
same,GI50,TK-10,> 100 µM (inactive)
same,GI50,U-251,> 100 µM (inactive)
same,GI50,UACC-257,> 100 µM (inactive)
same,GI50,UACC-62,> 100 µM (inactive)
same,GI50,UO-31,> 100 µM (inactive)
O=C1C(Cl)=C(N2C(=O)CCC2=O)C(=O)c2ccccc21,GI50,786-0,18.7 µM (inactive)
same,GI50,A498,37.9 µM (inactive)
same,GI50,A549,31.8 µM (inactive)
same,GI50,ACHN,15.7 µM (inactive)
same,GI50,BT-549,20.5 µM (inactive)
same,GI50,CAKI-1,19.1 µM (inactive)
same,GI50,CCRF-CEM,2.62 µM (inactive)
same,GI50,COLO 205,15.2 µM (inactive)
same,GI50,DU-145,32.7 µM (inactive)
same,GI50,EKVX,34.2 µM (inactive)
same,GI50,HCC 2998,22.5 µM (inactive)
same,GI50,HCT-116,22.8 µM (inactive)
same,GI50,HCT-15,13.2 µM
same,GI50,HL-60,2.51 µM (inactive)
same,GI50,HOP-62,> 100 µM (inactive)
same,GI50,HOP-92,7.83 µM (inactive)
same,GI50,HT-29,29 µM (inactive)
same,GI50,Hs-578T,> 100 µM (inactive)
same,GI50,IGROV-1,44.4 µM (inactive)
same,GI50,K562,2.83 µM (inactive)
same,GI50,KM12,41.8 µM (inactive)
same,GI50,LOX IMVI,27.3 µM (inactive)
same,GI50,M14,45.7 µM (inactive)
same,GI50,MCF7,17.2 µM (inactive)
same,GI50,MDA-MB-231,27.5 µM (inactive)
same,GI50,MDA-MB-435,19.8 µM (inactive)
same,GI50,MDA-N,19.4 µM (inactive)
same,GI50,MOLT-4,50.7 µM (inactive)
same,GI50,NCI-H226,> 100 µM (inactive)
same,GI50,NCI-H23,29 µM (inactive)
same,GI50,NCI-H460,53.6 µM (inactive)
same,GI50,NCI-H522,17.8 µM (inactive)
same,GI50,NCI/ADR-RES,89.3 µM (inactive)
same,GI50,OVCAR-3,17.9 µM (inactive)
same,GI50,OVCAR-5,20.4 µM (inactive)
same,GI50,OVCAR-8,37.1 µM (inactive)
same,GI50,PC-3,53.2 µM (inactive)
same,GI50,RXF 393,18.5 µM (inactive)
same,GI50,SF-268,40.1 µM (inactive)
same,GI50,SF-295,> 100 µM (inactive)
same,GI50,SF-539,39.8 µM (inactive)
same,GI50,SK-MEL-28,20.4 µM (inactive)
same,GI50,SK-MEL-2,39.8 µM (inactive)
same,GI50,SK-MEL-5,19.8 µM (inactive)
same,GI50,SK-OV-3,> 100 µM (inactive)
same,GI50,SN12C,17.9 µM (inactive)
same,GI50,SNB-19,52.6 µM (inactive)
same,GI50,SNB-75,> 100 µM (inactive)
same,GI50,SR,32 µM (inactive)
same,GI50,SW-620,23.1 µM (inactive)
same,GI50,T47D,32.4 µM (inactive)
same,GI50,TK-10,39.8 µM (inactive)
same,GI50,U-251,23.9 µM (inactive)
same,GI50,UACC-257,25.2 µM (inactive)
same,GI50,UACC-62,34 µM (inactive)
same,GI50,UO-31,15 µM (inactive)
